Assay results reported in patent US12496329B2, “Methods of using and compositions including an incretin analog” (Eli Lilly and Company, priority 2021, dated 2025).
Marks after values point to notes of the source that are not given here.

Assay: MAD study in individuals with diabetes: pharmacodynamics (OGTT, glucose, HbA1c, body weight, appetite VAS)
Format: in vivo, human
Set-up: OGIS Index, change from baseline / Disposition Index, change from baseline: unit not given here
Settings: for Disposition Index, change from baseline / HOMA2-B, change from baseline / HOMA2-IR, change from baseline / Insulin Sensitivity Matsuda Index, change from baseline / Insulinogenic Index, change from baseline / OGIS Index, change from baseline / OGTT C-peptide AUC (0-2 hr), change from baseline / OGTT GCG AUC (0-2 hr), change from baseline / OGTT glucose AUC (0-2 hr), change from baseline / OGTT insulin AUC (0-2 hr), change from baseline / Daily mean plasma glucose, change from baseline / HbA1c, change from baseline: 1.5 mg Dula
Source text: Studies are designed to evaluate the safety, tolerability, PD and PK of the GGG tri-receptor agonist (SEQ ID NO:1) in individuals with diabetes. The MAD study is a randomized, investigator- and participant-blind, placebo-controlled, multiple-ascending dose, single-site study conducted in individuals with diabetes (i.e., females or males aged 20-70 years, inclusive, with T2DM for at least 3 months and HbA1c at lead-in and screening of ≥7.0% and ≤10.5% and treated with diet and exercise alone or a stable dose of metformin for at least 3 months prior to screening, with stable body weight for 3 months prior to randomization and with a BMI of 23-50 kg/m^2 at screening).
Dose escalation of the GGG tri-receptor agonist is assessed over 12 weeks in cohorts with a starting dose of 0.5 mg. One cohort of 13 individuals is administered 0.5 mg for 12 weeks. A second cohort of 13 individuals is administered 1.5 mg for 12 weeks. A third cohort of 15 individuals is administered 3.0 mg for 12 weeks. A fourth cohort of 15 individuals is administered 3.0 mg for 4 weeks and then administered 6.0 mg for 8 weeks. A fifth cohort of 16 individuals is administered 3.0 mg for 2 weeks, administered 6.0 mg for 2 weeks, administered 9.0 mg for 4 weeks, and then administered 12 mg for 4 weeks. Alternate dose increment steps may be introduced based on emerging safety and tolerability data from the preceding cohorts, and the dose increment steps can be reduced. As a non-limiting example, in Cohort 4, escalation from starting dose of 3 mg may occur via a step-through dose of 4.5 mg before attaining 6 mg, in Cohort 5, escalation from starting dose of 3 to 12 mg may occur via an additional step through dose level of 4.5 mg, prior to the planned doses 6 and 9 mg. In addition to these proposed alternate regimens in Cohort 4 and Cohort 5, planned dose for escalation between cohorts and within cohorts may be further reduced if warranted by safety or tolerability data.
C-peptide, glucagon, glucose and insulin are measured for an oral glucose tolerance test (OGTT) during the study using methods known in the art for each of the analytes. In addition, HbA1c is measured at Days 1, 29, 57, 78 and 85, as well as at Week 16. The following parameters are derived from the OGTT to assess insulin resistance and β cell function: Homeostatic model assessment (HOMA)-B, HOMA-IR, insulinogenic index, insulin sensitivity (Matsuda Index) and oral glucose insulin sensitivity (OGIS).
Insulin sensitivity is calculated as per the below equation: […]
Insulin sensitivity (Matsuda Index) is calculated as per the below equation: […]
Disposition index is calculated as (IGI*ISI).
OGIS is calculated as per the below equation: […]
Satiety VAS is measured after fasting on Days 1, 8, 15, 22, 29, 36, 43, 50, 57, 64, 71, 78 and 80, as well as at Week 16. Appetite sensations are assessed using a VAS for parameters of hunger, fullness, satiety and prospective food intake, and an overall appetite score is calculated as described above in the SAD study.

[1] = 1.5 mg dulaglutide, 12-week treatment

With dulaglutide the “Disposition Index, change from baseline” value (Day 2) was 0.0812, the “HOMA2-B, change from baseline” value (Day 2) was 31.2 and the “HOMA2-IR, change from baseline” value (Day 2) was 0.360. The “Insulin Sensitivity Matsuda Index, change from baseline” value (Day 2) was −0.0208, the “Insulinogenic Index, change from baseline” value (from here on “Insulinogenic Index, change”) (Day 2) was 0.119 and the “OGIS Index, change from baseline” value (Day 2) was 23.5. The “OGTT C-peptide AUC (0-2 hr), change from baseline” value (Day 2) was 879 pmol·h/L, the “OGTT GCG AUC (0-2 hr), change from baseline” value (“OGTT GCG AUC (0-2 hr), change” below) (Day 2) was -1.21 pmol·h/L and the “OGTT glucose AUC (0-2 hr), change from baseline” value (Day 2) was -9.10 mmol·h/L. The “OGTT insulin AUC (0-2 hr), change from baseline” value (Day 2) was 322 pmol·h/L, the “Daily mean plasma glucose, change from baseline” value (Day 3) was −2.60* mmol/L and the “HbA1c, change from baseline” value (Day 29) was −0.646%. For the same substance, the “Disposition Index, change from baseline” value (Day 30) was 0.0866, the “HOMA2-B, change from baseline” value (Day 30) was 42.2 and the “HOMA2-IR, change from baseline” value (Day 30) was 0.480. For the same substance, the “Insulin Sensitivity Matsuda Index, change from baseline” value (Day 30) was −0.476, the “Insulinogenic Index, change” value (Day 30) was 0.130 and the “OGIS Index, change from baseline” value (Day 30) was 19.4. The “OGTT C-peptide AUC (0-2 hr), change from baseline” value (Day 30) was 1350 pmol·h/L, the “OGTT GCG AUC (0-2 hr), change” value (Day 30) was -4.52 pmol·h/L and the “OGTT glucose AUC (0-2 hr), change from baseline” value (Day 30) was -10.6 mmol·h/L. The “OGTT insulin AUC (0-2 hr), change from baseline” value (Day 30) was 519 pmol·h/L, the “Daily mean plasma glucose, change from baseline” value (Day 31) was −3.89* mmol/L and the “HbA1c, change from baseline” value (Day 57) was −0.997%. The “Daily mean plasma glucose, change from baseline” value (Day 59) was −3.21* mmol/L, the “HbA1c, change from baseline” value (Day 78) was −1.07% and the “Disposition Index, change from baseline” value (Day 79) was 0.0481. The “HOMA2-B, change from baseline” value (Day 79) was 25.9, the “HOMA2-IR, change from baseline” value (Day 79) was 0.600 and the “Insulin Sensitivity Matsuda Index, change from baseline” value (Day 79) was −1.14. For the same substance, the “Insulinogenic Index, change” value (Day 79) was 0.105, the “OGIS Index, change from baseline” value (Day 79) was 38.1 and the “OGTT C-peptide AUC (0-2 hr), change from baseline” value (Day 79) was 354 pmol·h/L. For the same substance, the “OGTT GCG AUC (0-2 hr), change” value (Day 79) was -1.28 pmol·h/L, the “OGTT glucose AUC (0-2 hr), change from baseline” value (Day 79) was -8.44 mmol·h/L and the “OGTT insulin AUC (0-2 hr), change from baseline” value (Day 79) was 188 pmol·h/L. For the same substance, the “Daily mean plasma glucose, change from baseline” value (Day 80) was −3.73* mmol/L, the “HbA1c, change from baseline” value (Day 85) was −0.960% and the “HbA1c, change from baseline” value (Day 106) was −0.538%. For the same substance, the fullness scores [1] was “increase from baseline”, the hunger scores [1] was “decrease from baseline” and the “prospective food consumption scores” value [1] was “greatest decreases from baseline”. For the same substance, the satiety scores [1] was “increase from baseline”, the “maximum decrease from baseline in mean body weight” value (1.5 mg, 12-weeks treatment) was 1.3 kg and the “decrease from baseline in mean waist circumference” value (1.5 mg, Day 85) was 4.9 cm.
